How the values were obtained:
[1] = xn = mol fraction of the nth substance listed; details: 101.3 kPa, Liquid, x1 = 1; for viscosity: Concentric cylinders viscometry; for mass density: Vibrating tube method
[2] = refractive index (Na D-line) (dimensionless); xn = mol fraction of the nth substance listed; details: 101.3 kPa, Liquid, Standard Abbe refractometry, x1 = 1
[3] = 101.3 kPa, Liquid; for viscosity: Concentric cylinders viscometry; for mass density: Vibrating tube method
[4] = refractive index (Na D-line) (dimensionless); details: 101.33 kPa, Liquid, Standard Abbe refractometry

CCC(C)O (stereo not given) [butan-2-ol] + CN1CCCC1=O
Details | mass density, [1] [kg/m3] | refractive index, [2] | viscosity, [1] [mPa·s]
288.15 K | 810.654 | 1.39959 | 4.29
293.15 K | 806.62 | 1.39748 | 3.576
298.15 K | 802.502 | 1.39534 | 2.954
303.15 K | 798.302 | 1.39314 | 2.469
308.15 K | 794.003 | 1.39086 | 2.08
313.15 K | 789.609 | 1.38851 | 1.766
318.15 K | 785.109 | 1.38617 | 1.512
323.15 K | 780.499 | 1.38372 | 1.303

COCCOCCOCCOCCOC [2,5,8,11,14-pentaoxapentadecane]
Details | mass density, [3] [kg/m3] | refractive index, [4] | viscosity, [3] [mPa·s]
288.15 K | 1015.63 | 1.4345 | 4.341
293.15 K | 1011 | 1.43238 | 3.834
298.15 K | 1006.36 | 1.43027 | 3.38
303.15 K | 1001.73 | 1.42815 | 3.004
308.15 K | 997.104 | 1.42603 | 2.691
313.15 K | 992.481 | 1.42394 | 2.426
318.15 K | 987.859 | 1.42183 | 2.199
323.15 K | 983.234 | 1.41973 | 2.006

CCC(C)O (stereo not given) [butan-2-ol] + COCCOCCOCCOCCOC
Details | mass density, [1] [kg/m3] | refractive index, [2] | viscosity, [1] [mPa·s]
288.15 K | 810.654 | 1.39959 | 4.29
293.15 K | 806.62 | 1.39748 | 3.576
298.15 K | 802.502 | 1.39534 | 2.954
303.15 K | 798.302 | 1.39314 | 2.469
308.15 K | 794.003 | 1.39086 | 2.08
313.15 K | 789.609 | 1.38851 | 1.766
318.15 K | 785.109 | 1.38617 | 1.512
323.15 K | 780.499 | 1.38372 | 1.303

CN1CCCC1=O [N-methylpyrrolidone]
Details | mass density, [3] [kg/m3] | refractive index, [4] | viscosity, [3] [mPa·s]
288.15 K | 1037.3 | 1.47166 | 1.99
293.15 K | 1032.84 | 1.46952 | 1.823
298.15 K | 1028.38 | 1.46736 | 1.679
303.15 K | 1023.92 | 1.4652 | 1.555
308.15 K | 1019.46 | 1.46306 | 1.444
313.15 K | 1015 | 1.46095 | 1.346
318.15 K | 1010.53 | 1.45891 | 1.259
323.15 K | 1006.06 | 1.4568 | 1.182

CCC(C)O (stereo not given) [butan-2-ol]
Details | mass density, [3] [kg/m3] | refractive index, [4] | viscosity, [3] [mPa·s]
288.15 K | 810.654 | 1.39959 | 4.29
293.15 K | 806.62 | 1.39748 | 3.576
298.15 K | 802.502 | 1.39534 | 2.954
303.15 K | 798.302 | 1.39314 | 2.469
308.15 K | 794.003 | 1.39086 | 2.08
313.15 K | 789.609 | 1.38851 | 1.766
318.15 K | 785.109 | 1.38617 | 1.512
323.15 K | 780.499 | 1.38372 | 1.303
